Values of other authors in patent US20040131704A1, “A method of organic and all natural treatment, prevention and relief of diaper dermatitis and other related skin irritations” (priority 2003, published 2004).

Tests used:
[1] = system: epithelial formations; settings: aqueous solution in strengths of 0.30 percent
[2] = topical application of Lavender oil
[3] = system: 18 strains of gram positive and gram-negative bacteria
[4] = relative activity of triterpenoids

In the case of `NC(=O)NC1NC(=O)NC1=O` (stereo not shown) [Allantoin], the “action in strengthening epithelial formations” value [1] is given as “powerful action”.

In the case of `C=CC(C)(O)CCC=C(C)C` (stereo not shown) [Linalool], the “time of peak in the blood” value [2] is given as 19 min, the “time to detection in the blood” value [2] is given as “five” and the “number of strains with antibacterial activity” value [3] is given as 17 out of 18 strains.

For `CC1(C)CC[C@]2(C)CC[C@]3(C)C(=CC[C@@H]4[C@@]5(C)CC[C@H](O)C(C)(C)[C@@H]5CC[C@]43C)[C@@H]2C1` [beta-amyrin], the anti-inflammatory activity [4] is given as “less active than the free diol”.

In the case of `CC12CCC(CC1)C(C)(C)O2` [cineole], the “number of strains with antibacterial activity” value [3] is listed as 16 out of 18 strains.

In the case of `CC1=CC[C@@]2(C)[C@H]([C@@H]1C)[C@H]1CC[C@@H]3[C@@]4(C)CC[C@H](O)C(C)(C)[C@@H]4CC[C@@]3(C)[C@]1(C)C[C@@H]2O` [faradiol], the anti-inflammatory activity [4] is listed as “most active of the tested compounds and equals indomethacian in activity”.

For `C=CC(C)(CCC=C(C)C)OC(C)=O` (stereo not shown) [linalyl acetate], the “time of peak in the blood” value [2] is listed as 19 min and the “time to detection in the blood” value [2] is listed as “five”.

For `C=C(C)[C@@H]1CC[C@]2(C)CC[C@]3(C)[C@H](CC[C@@H]4[C@@]5(C)CC[C@H](O)C(C)(C)[C@@H]5CC[C@]43C)[C@@H]12` [lupeol], the anti-inflammatory activity [4] is listed as “less active than the free diol”.

For `CC1=CCC2(C)CCC3(C)C(CCC4C5(C)CCC(O)C(C)(C)C5CCC43C)C2C1C` (stereo not shown) [psi-taraxzsterol], the anti-inflammatory activity [4] is listed as “less active than the free diol”.

In the case of `C=C1CC[C@]2(C)CC[C@]3(C)[C@H](CC[C@@H]4[C@@]5(C)CC[C@H](O)C(C)(C)[C@@H]5CC[C@]43C)[C@H]2[C@@H]1C` [taraxasterol], the anti-inflammatory activity [4] is listed as “less active than the free diol”.

For faradoil monoester, the anti-inflammatory activity [4] is given as “most relevant principle for the activity of the drug”.
